Source: publication PMC6105673 (Nature Communications, 2018)
No end group written: not given here. *: point of attachment. Biotin = O=C1N[C@H]2[C@H](CS[C@H]2CCCCC(=O)*)N1

Experiments:
HIS6-PHD2 (181–426) [1] = experiment: In vitro hydroxylation assay (HIS6-PHD2 treatment, then IVTT pVHL pull-down); type: biochemical; details: unmodified biotinylated peptides, 15 μg/mL HIS6-PHD2 (181–426), 1 h room temperature, then IVTT HA-VHL30 under stringent buffer
Description: Considering that prolyl hydroxylation is indispensable for HIF-2α binding to pVHL, we next examined the notion that the A530V mutation negatively influences hydroxylation of HIF-2α via PHD2, which would attenuate HIF-2α A530V binding affinity for pVHL. We conducted an in vitro hydroxylation assay utilizing unmodified peptides (amino acids 523–542) incubated with purified HIS6-PHD2 (catalytic core, amino acids 181–426).
Fig. 5 A subset of class 1 mutations specifically disrupts PHD2-mediated hydroxylation. a, b Biotinylated HIF-2α peptides (residues 523–542) were immobilized on streptavidin- agarose beads and incubated with HIS6-PHD2 for 1 h at room temperature prior to incubation with in vitro transcribed and translated (IVTT) pVHL. Streptavidin beads were pulled down (PD) and levels of HA-tagged pVHL were visualized via immmunoblotting (IB). c HEK293a cells were co-transfected with FLAG-VHL and HA-HIF-2α constructs. FLAG was immunoprecipitated (IP) and levels of HA-tagged HIF-2α were visualized via immunoblotting (IB). * denotes uncharacterized band
The in vitro pVHL-HIF-2α hydroxylation assay was performed according to a previously published protocol. 5 μg of biotinylated HIF-2α peptide was immobilized on streptavidin-agarose beads. Subsequently, peptides were incubated with 15 μg/mL HIS6-PHD2 (181–426) in 500 μL of 40 mM HEPES pH 7.4, 80 mM KCl, 5 mM a-ketoglutarate, 2 mM ascorbic acid, 100 μM FeCl2 tetrahydrate solution at room temperature for 1 h. FeCl2 was stored under anoxic conditions to prevent oxidation. Following hydroxylation, beads were washed 5x with EBC buffer and peptides were incubated with IVTT HA-VHL30 under the stringent buffer conditions described above.

HIS6-PHD2 (181–426) [2] = experiment: Steady-state pull-down of purified HIS6-PHD2 with biotinylated HIF-2α peptides; type: binding; details: peptides (523–542), purified HIS6-PHD2 (181–426), with 1 mM MnCl2 and 1 mM NOG, 2 h at 4 °C
Text: To first test this hypothesis, we performed steady-state pull-down experiments with HIF-2α peptides (523–542) and purified HIS6-PHD2 (181–426). To stabilize the interaction between enzyme and substrate, it was necessary to include MnCl2 and N-oxalylglycine (NOG) in the binding buffer. Mn^2+ and NOG substitute for Fe^2+ and αKG, respectively, which stabilizes the HIF-2α-PHD2 interaction while preventing enzymatic turnover. A similar strategy was employed during co-crystallization of HIF-1α peptide with PHD2[43]. We observed that […] tested HIF-2α mutations result in decreased affinity for PHD2 (Supplementary Figure 6a). […] Next, we co-transfected HEK293a cells with 3xFLAG-HIF-2α ODD and HA-PHD2 constructs. […] The increased binding of the M535I mutant to PHD2 was not observed in this experiment. One important caveat is that the HIF-2α ODD constructs contain both the P405 and P531 sites. Thus, the residual PHD2 binding observed among HIF-2α mutants may partially be driven by the P405 site, which may mask differential PHD2 binding among the HIF-2α mutant ODD constructs.
5 μg of biotinylated HIF-2α peptide (WT or mutant) was immobilized on streptavidin agarose beads and incubated with a […] solution of purified HIS6-PHD2 (181–426) in 50 mM Tris-HCl pH 7.5, 0.005% (v/v) Tween-20 buffer supplemented with or without 1 mM MnCl2 and 1 mM NOG, for 2 h at 4 °C. Beads were washed 2x with the same buffer. Biotinylated peptide was pulled down via streptavidin agarose beads and protein was eluted by boiling beads in sample buffer. Protein levels of HIS6-PHD2 were determined by western blotting. Uncropped western blots are provided in Supplementary Figure 8.
Supplementary Figure 6. HIF-2α mutations disrupt PHD2 binding. (A) Biotinylated HIF-2α peptides (523-542, except where noted) were immobilized on streptavidin- agarose beads and incubated with purified HIS6-PHD2 (181-426) in the presence or absence of 1 mM MnCl2 and 1 mM N-oxalylglycine (NOG).
Streptavidin beads were pulled down (PD) and levels of HIS6-tagged PHD2 were visualized via immmunoblotting (IB). […]

[3] = target: T1, HIS6-PHD2 (catalytic core, amino acids 181–426) (UniProt Q9GZT9 181-426); experiment: pull-down; biotinylated unmodified peptide on streptavidin agarose, purified HIS6-PHD2 (181–426), 50 mM Tris-HCl pH 7.5, 0.005% Tween-20 with 1 mM MnCl2 and 1 mM NOG, 2 h at 4 °C; anti-HIS blot; details: both partners purified
T1 construct: prolyl hydroxylase domain containing enzyme 2 (PHD2, encoded by EGLN1), catalytic core, residues 181-426; plasmid pET-46 HIS6-PHD2; also called purified HIS6-PHD2 (181–426); source: E. coli BL21(DE3), purified (nickel sepharose, SEC)
T1 sequence (Q9GZT9 181-426): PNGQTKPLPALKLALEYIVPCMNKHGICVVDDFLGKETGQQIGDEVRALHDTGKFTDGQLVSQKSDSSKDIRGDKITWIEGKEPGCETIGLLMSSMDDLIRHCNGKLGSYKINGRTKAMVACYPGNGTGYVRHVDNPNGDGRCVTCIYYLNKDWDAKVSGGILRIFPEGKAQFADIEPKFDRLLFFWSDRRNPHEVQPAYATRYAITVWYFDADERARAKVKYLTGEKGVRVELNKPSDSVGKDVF

Molecule | binding result [3] | binding to pVHL following HIS6-PHD2 treatment (immunoblot, in words) (HIS6-PHD2 (181–426) [1]) | affinity for PHD2 in steady-state pull-down (immunoblot, in words) (HIS6-PHD2 (181–426) [2])
Bio-HIF-2α(A530T): unmodified HIF-2α peptide (523–542) with A530T mutation (Biotin-ELDLETLTPYIPMDGEDFQL-NH2; SMILES CC[C@H](C)[C@H](NC(=O)[C@H](Cc1ccc(O)cc1)NC(=O)[C@@H]1CCCN1C(=O)[C@@H](NC(=O)[C@H](CC(C)C)NC(=O)[C@@H](NC(=O)[C@H](CCC(=O)O)NC(=O)[C@H](CC(C)C)NC(=O)[C@H](CC(=O)O)NC(=O)[C@H](CC(C)C)NC(=O)[C@H](CCC(=O)O)NC(=O)CCCC[C@@H]1SC[C@@H]2NC(=O)N[C@@H]21)[C@@H](C)O)[C@@H](C)O)C(=O)N1CCC[C@H]1C(=O)N[C@@H](CCSC)C(=O)N[C@@H](CC(=O)O)C(=O)NCC(=O)N[C@@H](CCC(=O)O)C(=O)N[C@@H](CC(=O)O)C(=O)N[C@@H](Cc1ccccc1)C(=O)N[C@@H](CCC(N)=O)C(=O)N[C@@H](CC(C)C)C(N)=O) |  | only minimally able to bind pVHL | 
Bio-HIF-2α(A530V): unmodified HIF-2α peptide (523–542) with A530V mutation (Biotin-ELDLETLVPYIPMDGEDFQL; UniProt Q99814 523-542, looked up, fragment A530V) |  | only minimally able to bind pVHL | 
Bio-HIF-2α(M535I): unmodified HIF-2α peptide (523–542) with M535I mutation (Biotin-ELDLETLAPYIPIDGEDFQL-NH2; SMILES CC[C@H](C)[C@H](NC(=O)[C@@H]1CCCN1C(=O)[C@@H](NC(=O)[C@H](Cc1ccc(O)cc1)NC(=O)[C@@H]1CCCN1C(=O)[C@H](C)NC(=O)[C@H](CC(C)C)NC(=O)[C@@H](NC(=O)[C@H](CCC(=O)O)NC(=O)[C@H](CC(C)C)NC(=O)[C@H](CC(=O)O)NC(=O)[C@H](CC(C)C)NC(=O)[C@H](CCC(=O)O)NC(=O)CCCC[C@@H]1SC[C@@H]2NC(=O)N[C@@H]21)[C@@H](C)O)[C@@H](C)CC)C(=O)N[C@@H](CC(=O)O)C(=O)NCC(=O)N[C@@H](CCC(=O)O)C(=O)N[C@@H](CC(=O)O)C(=O)N[C@@H](Cc1ccccc1)C(=O)N[C@@H](CCC(N)=O)C(=O)N[C@@H](CC(C)C)C(N)=O) |  | still retained affinity for pVHL | not as deleterious
HIF-2α (wild-type): biotinylated non-hydroxylated wild-type HIF-2α peptide, residues 523–541 |  | failed to bind pVHL | 
HIF-2α L542P peptide: unmodified HIF-2α peptide (523–542) with class 1 mutation L542P (Biotin-ELDLETLAPYIPMDGEDFQP-NH2; SMILES CC[C@H](C)[C@H](NC(=O)[C@H](Cc1ccc(O)cc1)NC(=O)[C@@H]1CCCN1C(=O)[C@H](C)NC(=O)[C@H](CC(C)C)NC(=O)[C@@H](NC(=O)[C@H](CCC(=O)O)NC(=O)[C@H](CC(C)C)NC(=O)[C@H](CC(=O)O)NC(=O)[C@H](CC(C)C)NC(=O)[C@H](CCC(=O)O)NC(=O)CCCC[C@@H]1SC[C@@H]2NC(=O)N[C@@H]21)[C@@H](C)O)C(=O)N1CCC[C@H]1C(=O)N[C@@H](CCSC)C(=O)N[C@@H](CC(=O)O)C(=O)NCC(=O)N[C@@H](CCC(=O)O)C(=O)N[C@@H](CC(=O)O)C(=O)N[C@@H](Cc1ccccc1)C(=O)N[C@@H](CCC(N)=O)C(=O)N1CCC[C@H]1C(N)=O) |  | failed to bind pVHL | 

The next lines start with results.

binding result [3] | Molecule | binding to pVHL following HIS6-PHD2 treatment (immunoblot, in words) (HIS6-PHD2 (181–426) [1]) | affinity for PHD2 in steady-state pull-down (immunoblot, in words) (HIS6-PHD2 (181–426) [2])
binds | Biotin-ELDLETLAPYIPIDGEDFQL-NH2 (peptide, UniProt Q99814 523-542, looked up, SMILES CC[C@H](C)[C@H](NC(=O)[C@@H]1CCCN1C(=O)[C@@H](NC(=O)[C@H](Cc1ccc(O)cc1)NC(=O)[C@@H]1CCCN1C(=O)[C@H](C)NC(=O)[C@H](CC(C)C)NC(=O)[C@@H](NC(=O)[C@H](CCC(=O)O)NC(=O)[C@H](CC(C)C)NC(=O)[C@H](CC(=O)O)NC(=O)[C@H](CC(C)C)NC(=O)[C@H](CCC(=O)O)NC(=O)CCCC[C@@H]1SC[C@@H]2NC(=O)N[C@@H]21)[C@@H](C)O)[C@@H](C)CC)C(=O)N[C@@H](CC(=O)O)C(=O)NCC(=O)N[C@@H](CCC(=O)O)C(=O)N[C@@H](CC(=O)O)C(=O)N[C@@H](Cc1ccccc1)C(=O)N[C@@H](CCC(N)=O)C(=O)N[C@@H](CC(C)C)C(N)=O, Used for the pull-down of HIS6-PHD2; also called M535I class 2 mutant; source: synthetic peptide (Genscript)) [HIF-2α M535I peptide (523-542), unmodified] |  | 
binds | Biotin-ELDLETLAPYIPMDGEDFQL-NH2 (SMILES CC[C@H](C)[C@H](NC(=O)[C@H](Cc1ccc(O)cc1)NC(=O)[C@@H]1CCCN1C(=O)[C@H](C)NC(=O)[C@H](CC(C)C)NC(=O)[C@@H](NC(=O)[C@H](CCC(=O)O)NC(=O)[C@H](CC(C)C)NC(=O)[C@H](CC(=O)O)NC(=O)[C@H](CC(C)C)NC(=O)[C@H](CCC(=O)O)NC(=O)CCCC[C@@H]1SC[C@@H]2NC(=O)N[C@@H]21)[C@@H](C)O)C(=O)N1CCC[C@H]1C(=O)N[C@@H](CCSC)C(=O)N[C@@H](CC(=O)O)C(=O)NCC(=O)N[C@@H](CCC(=O)O)C(=O)N[C@@H](CC(=O)O)C(=O)N[C@@H](Cc1ccccc1)C(=O)N[C@@H](CCC(N)=O)C(=O)N[C@@H](CC(C)C)C(N)=O, Used for the pull-down of HIS6-PHD2; source: synthetic peptide (Genscript)) [HIF-2α WT peptide (523-542), unmodified] |  | 
